Where two headings read alike, the source gives them in different places.
Columns and labels:
[1] = Plasma and brain concentrations at 60 minutes post-dosing; format: in vivo; settings: male, Sprague-Dawley, rat, ip, rats, 3 mg/kg i.p.; for Kp at 60 min: brain and plasma, n=5
Procedure: (§1) Compound I of the present invention was compared to Compound II by testing the for effects on the duration of anesthesia induced by the combination of xylazine and ketamine in rats. Male Sprague-Dawley rats were anaesthetised with a combination of xylazine (10 mg/kg) and ketamine (10 mg/kg) administered in a single intramuscular injection in the back hindlimb. Fifteen minutes later, the drug to be tested or its vehicle was injected intraperitoneally (dosing volume=1 ml/kg) and the animals were placed in dorsal recumbence. The compounds were dissolved immediately before use in polyethylene glycol (M.W. 200). The return of the righting reflex (i.e. when the animal no longer remained on its back and turned itself spontaneously to the prone position) was used as an endpoint to determine the duration of anaesthesia.
(§2) At the end of the experiment, at 60 minutes post-dosing, plasma and brain samples were taken for drug concentration determination.
However, the distribution to the brain was very different for each compound.

[2] = test system: duration of anesthesia induced by the combination of xylazine and ketamine in rats; assay: Effect on duration of anesthesia induced by xylazine and ketamine; format: in vivo, Male Sprague-Dawley rats; settings: 3 mg/kg i.p.; for Duration of anesthesia (min), Compound treated group: n = 5, mean ± S.E.M., return of righting reflex as endpoint; for Effect on duration of anaesthesia (in words): n=5
Procedure: as §1, §2

[3] = brain, n=5, read-out: Brain concentration
[4] = plasma, n=5, read-out: Plasma concentration

Row | Compound | Kp at 60 min [1] | concentration at 60 min [1, 3] [nM] | concentration at 60 min [1, 4] [nM] | Inhibition % (of duration of anesthesia vs vehicle treated group) [2] [%] | Duration of anesthesia (min), Compound treated group [2] [min] | Effect on duration of anaesthesia (in words) [2]
1 | O=C(Nc1c(Cl)c[n+]([O-])cc1Cl)c1ccc(OC(F)F)c(OCC2CC2)c1 [Compound Formula I, N-(3,5-Dichloro-1-oxido-pyridin-4-yl)-4-difluoromethoxy-3-cyclopropylmethoxybenzamide] | 0.0938 | 410 ± 150 | 4370 ± 1650 | 15.6 | 37.40 ± 7.83 | did not significantly modify the duration of anaesthesia
2 | O=C(Nc1c(Cl)cncc1Cl)c1ccc(OC(F)F)c(OCC2CC2)c1 [Compound Formula II, N-(3,5-Dichloropyridin-4-yl)-4-difluoromethoxy-3-cyclopropylmethoxybenzamide] | 0.75 | 150 ± 50 | 200 ± 80 | 54.7 | 19.20 ± 4.68 | significant reduction in the duration of the anaesthesia

From patent US6448274B2, “Fluoroalkoxy-substituted benzamide dichloropyridinyl N-oxide PDE4 inhibitor” (Merck Frosst Canada & Co., priority 2000, dated 2002)
